Laboratory results: ChEMBL document CHEMBL1201862, “PubChem BioAssay data set” (2004)
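The compound was tested at five concentrations on cells cultured in 96-well plates, with a 48-hour exposure period. GI50 marks 50% less growth.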 Activity calls are given as the source filed them. Rule as the data show it: active = GI50 up to about 1.1 µM and inactive = higher.

Assays:
Experiment in all cases: NCI tumour cell line growth inhibition, 48 h
ACHN = system: ACHN
BT-549 = system: BT-549
CCRF-CEM = system: CCRF-CEM
EKVX = system: EKVX
HT-29 = system: HT-29
Hs-578T = system: Hs-578T
IGROV-1 = system: IGROV-1
LOX IMVI = system: LOX IMVI
MCF7 = system: MCF7
MDA-MB-231 = system: MDA-MB-231
MDA-MB-435 = system: MDA-MB-435
Malme-3M = system: Malme-3M
NCI-H226 = system: NCI-H226
OVCAR-5 = system: OVCAR-5
OVCAR-8 = system: OVCAR-8
SF-295 = system: SF-295
SK-OV-3 = system: SK-OV-3
SR = system: SR
TK-10 = system: TK-10
DMS-114 = system: DMS-114

Row | SMILES | GI50 (ACHN) | GI50 (BT-549) | GI50 (CCRF-CEM) | GI50 (EKVX) | GI50 (HT-29) | GI50 (Hs-578T) | GI50 (IGROV-1) | GI50 (LOX IMVI) | GI50 (MCF7) | GI50 (MDA-MB-231) | GI50 (MDA-MB-435) | GI50 (Malme-3M) | GI50 (NCI-H226) | GI50 (OVCAR-5) | GI50 (OVCAR-8) | GI50 (SF-295) | GI50 (SK-OV-3) | GI50 (SR) | GI50 (TK-10) | GI50 (DMS-114)
1 | O=c1cnc2cc3ccccc3cc2[nH]1 | > 100 µM (inactive) | > 100 µM (inactive) | > 100 µM (inactive) | 1.57 µM (inactive) | > 100 µM (inactive) | > 100 µM (inactive) | > 100 µM (inactive) | > 100 µM (inactive) | > 100 µM (inactive) | 75.7 µM (inactive) | > 100 µM (inactive) | > 100 µM (inactive) | > 100 µM (inactive) | > 100 µM (inactive) | > 100 µM (inactive) | > 100 µM (inactive) | > 100 µM (inactive) | > 100 µM (inactive) | > 100 µM (inactive) | 
2 | CNC1C(=O)C(C)C(O)(C(CC(C)C(O)/C=C/C=C/CNC(=O)C(C)(C)C(O)\C(C)=C/C=C\C=C\Cc2cnc(C)o2)OC)C12C(=O)OC2C.CNC1C(=O)C(C)C(O)(C(CC(C)C(O)/C=C/C=C/CNC(=O)C(C)(C)C(O)\C(C)=C/C=C\C=C\Cc2cnc(C)o2)OC)C12C(=O)OC2COC (stereo not drawn) | 3.3 µM (inactive) | 25.1 µM (inactive) | 0.614 µM (active) | 0.292 µM (active) | 3.27 µM (inactive) | 12.4 µM (inactive) | 0.931 µM (active) | 14.2 µM (inactive) | 0.354 µM (active) | 26.9 µM (inactive) | 16 µM (inactive) | 9.04 µM (inactive) | 0.668 µM (active) | 20.6 µM (inactive) | 0.459 µM (active) | 0.528 µM (active) | 19 µM (inactive) | 15.1 µM (inactive) | 11.9 µM (inactive) | 
3 | C=C1CCC(CC[C@@H]2CC[C@]3(OC2)O[C@@]2(O)CC[C@]3(C)OC2(C)C)C(C)(C)[C@H]1C/C=C1/C(=O)OC[C@@H]1O (stereo partly drawn) | 2.65 µM (inactive) | 1.9 µM (inactive) | 1.06 µM (active) | 2.96 µM (inactive) | 1.63 µM (inactive) | 4.2 µM (inactive) | 2.91 µM (inactive) | 0.24 µM (active) | 1.11 µM (active) | 1.69 µM (inactive) | 1.86 µM (inactive) | 2.39 µM (inactive) | 2.29 µM (inactive) | 2.5 µM (inactive) | 1.22 µM (inactive) | 0.348 µM (active) | 4.85 µM (inactive) | 1.54 µM (inactive) | 6.12 µM (inactive) | 
4 | Clc1ccc(CCN(CCc2ccc(Cl)c(Cl)c2)CCN2CCCC2)cc1Cl | 1.74 µM (inactive) | 2.04 µM (inactive) | 1.15 µM (inactive) | 2.05 µM (inactive) | 1.68 µM (inactive) | 1.9 µM (inactive) | 1.58 µM (inactive) | 1.6 µM (inactive) | 1.51 µM (inactive) | 1.56 µM (inactive) | 1.44 µM (inactive) | 1.78 µM (inactive) | 1.67 µM (inactive) | 1.6 µM (inactive) | 1.68 µM (inactive) | 1.78 µM (inactive) | 1.78 µM (inactive) | 2.01 µM (inactive) | 1.78 µM (inactive) | 
5 | O=C(O)CCCSc1nc2ccccc2s1 | > 100 µM (inactive) | > 100 µM (inactive) | > 100 µM (inactive) | > 100 µM (inactive) | > 100 µM (inactive) | > 100 µM (inactive) | > 100 µM (inactive) | > 100 µM (inactive) | > 100 µM (inactive) | > 100 µM (inactive) | > 100 µM (inactive) | > 100 µM (inactive) | > 100 µM (inactive) | > 100 µM (inactive) | > 100 µM (inactive) | > 100 µM (inactive) | > 100 µM (inactive) | > 100 µM (inactive) | > 100 µM (inactive) | 
6 | CC(C)c1ccc2c(c1)/C(=C1/Nc3ccccc3/C1=N/O)C(=O)N2 | 3.33 µM (inactive) | 7.13 µM (inactive) | 3.14 µM (inactive) | 4.51 µM (inactive) | 4.69 µM (inactive) | 4.76 µM (inactive) | 8.73 µM (inactive) | 5.07 µM (inactive) | 1.69 µM (inactive) | 15.3 µM (inactive) | 7.38 µM (inactive) | 3.72 µM (inactive) | 10.8 µM (inactive) | 16.1 µM (inactive) | 2.79 µM (inactive) | 2.13 µM (inactive) | 6.55 µM (inactive) | 2.61 µM (inactive) | 9.4 µM (inactive) | 
7 | CC1(C)O[C@@H]2COC(=O)[C@@H]2O1 | > 100 µM (inactive) | > 100 µM (inactive) | > 100 µM (inactive) | > 100 µM (inactive) | > 100 µM (inactive) | > 100 µM (inactive) | > 100 µM (inactive) | > 100 µM (inactive) | > 100 µM (inactive) | > 100 µM (inactive) | > 100 µM (inactive) | > 100 µM (inactive) | > 100 µM (inactive) | > 100 µM (inactive) | > 100 µM (inactive) | > 100 µM (inactive) | > 100 µM (inactive) | > 100 µM (inactive) | > 100 µM (inactive) | 
8 | CC1(c2cccc(C(F)(F)F)c2)CC(c2cccc(C(F)(F)F)c2)=C(C#N)C(=C(C#N)C#N)N1 (stereo not drawn) | 17.2 µM (inactive) | 18.7 µM (inactive) | 2.88 µM (inactive) | 17.9 µM (inactive) | 18.8 µM (inactive) | 17.3 µM (inactive) | 16.6 µM (inactive) | 17.7 µM (inactive) | 16.7 µM (inactive) | 23 µM (inactive) | 18.1 µM (inactive) | 17.1 µM (inactive) | 18.2 µM (inactive) | 18.2 µM (inactive) | 17.5 µM (inactive) | 16.6 µM (inactive) | 16.1 µM (inactive) | 12.6 µM (inactive) | 16.8 µM (inactive) | 
9 | ON[C@@H]1C=C[C@H](n2cnc3c(NC4CC4)ncnc32)C1 | > 100 µM (inactive) | > 100 µM (inactive) | > 100 µM (inactive) | > 100 µM (inactive) | > 100 µM (inactive) | > 100 µM (inactive) | 94.4 µM (inactive) | 87.5 µM (inactive) | > 100 µM (inactive) | > 100 µM (inactive) | > 100 µM (inactive) | > 100 µM (inactive) | > 100 µM (inactive) | > 100 µM (inactive) | > 100 µM (inactive) | > 100 µM (inactive) | > 100 µM (inactive) | 88.3 µM (inactive) | > 100 µM (inactive) | 
10 | O=C1OC(CN2CCN(c3ccccc3)CC2)CN1C(=S)Nc1ccccc1 (stereo not drawn) | > 100 µM (inactive) | > 100 µM (inactive) | > 100 µM (inactive) | > 100 µM (inactive) | 35.1 µM (inactive) | > 100 µM (inactive) | > 100 µM (inactive) | > 100 µM (inactive) | > 100 µM (inactive) | > 100 µM (inactive) | > 100 µM (inactive) | > 100 µM (inactive) | > 100 µM (inactive) | > 100 µM (inactive) | > 100 µM (inactive) | > 100 µM (inactive) | > 100 µM (inactive) | > 100 µM (inactive) | > 100 µM (inactive) | 
11 | O=c1/c(=C/c2ccc([N+](=O)[O-])o2)sc2n1[C@@H](c1ccc3c(c1)OCO3)C=C(c1cc(F)c(Cl)cc1Cl)N=2 | 16.1 µM (inactive) | 16.8 µM (inactive) | 3.24 µM (inactive) | 16.6 µM (inactive) | 17.1 µM (inactive) | 61 µM (inactive) | 16.3 µM (inactive) | 17.2 µM (inactive) | 10 µM (inactive) | 23 µM (inactive) | 13.4 µM (inactive) | 19.7 µM (inactive) | 46.7 µM (inactive) | 21.7 µM (inactive) | 11.9 µM (inactive) | 31.2 µM (inactive) | 46.5 µM (inactive) | 3.33 µM (inactive) | 23.3 µM (inactive) | 
12 | COc1ccc(CC2Cc3ccccc3CC(=O)N2)cc1OC (stereo not drawn) | > 100 µM (inactive) | 37.4 µM (inactive) | 28.1 µM (inactive) | 89.7 µM (inactive) | > 100 µM (inactive) | > 100 µM (inactive) | > 100 µM (inactive) | 32.8 µM (inactive) | 52 µM (inactive) | > 100 µM (inactive) | 55.8 µM (inactive) | > 100 µM (inactive) | 43.6 µM (inactive) | > 100 µM (inactive) | 75 µM (inactive) | 86.7 µM (inactive) | > 100 µM (inactive) | 67.9 µM (inactive) | > 100 µM (inactive) | 
13 | Cc1ccc(NC(=S)C#N)c(C)c1 | > 100 µM (inactive) | 54.1 µM (inactive) | 24.2 µM (inactive) | > 93.5 µM (inactive) | > 91.2 µM (inactive) | > 100 µM (inactive) | > 63 µM (inactive) | 73.1 µM (inactive) | > 69.5 µM (inactive) | > 100 µM (inactive) | 56 µM (inactive) | 44.2 µM (inactive) | > 84.3 µM (inactive) | > 100 µM (inactive) | > 100 µM (inactive) | > 100 µM (inactive) | > 100 µM (inactive) | 33.7 µM (inactive) | > 100 µM (inactive) | 
14 | O=S1(=O)c2ccccc2N=C(c2ccccc2Cl)CC1c1ccc(F)cc1 (stereo not drawn) | 18.4 µM (inactive) |  | 14.1 µM (inactive) | 18.1 µM (inactive) |  |  | 17.4 µM (inactive) | 16.7 µM (inactive) |  |  |  | 20 µM (inactive) |  | 15.7 µM (inactive) | 21.5 µM (inactive) | 18.2 µM (inactive) | 43.2 µM (inactive) |  | 22.5 µM (inactive) | 19.7 µM (inactive)
15 | c1cc(CSSCc2ccncc2)ccn1 | 42.2 µM (inactive) | 51.6 µM (inactive) | 1.24 µM (inactive) | 54.8 µM (inactive) | 24.2 µM (inactive) | 29.2 µM (inactive) | 30.5 µM (inactive) | 10.6 µM (inactive) | 32.8 µM (inactive) | 25.9 µM (inactive) | 20.6 µM (inactive) | 24.9 µM (inactive) | 30.6 µM (inactive) | 55.5 µM (inactive) | 21.7 µM (inactive) | 37.6 µM (inactive) | 23.1 µM (inactive) | 3.44 µM (inactive) | 13.8 µM (inactive) | 
